Data: patent US20240294544A1, “NEW SUBSTITUTED PYRIDINES AS FUNGICIDES” (BASF SE, priority 2021, published 2024)

Tests used:
Assay type in all cases: cell-based
Botrytis cinerea = assay: Example 1: activity against the grey mold Botrytis cinerea in the microtiterplate test; settings: 31 ppm active substance; relative to compound-free control (100%); 405 nm, 7 days after inoculation
Septoria tritici = assay: Comparative Example 1: activity against leaf blotch on wheat caused by Septoria tritici (microtiter plate); settings: at 125 ppm; relative to compound-free control (100%); 405 nm, 7 days after inoculation
Experimental: (§1) The active compounds were formulated separately as a stock solution having a concentration of 10000 ppm in dimethyl sulfoxide. The stock solutions were mixed according to the ratio, pipetted onto a micro titer plate (MTP) and diluted with water to the stated concentrations. A spore suspension of Septoria tritici in an aqueous biomalt or yeast-bactopeptone-glycerine or DOB solution was then added. The plates were placed in a water vapor-saturated chamber at a temperature of 18° C. Using an absorption photometer, the MTPs were measured at 405 nm 7 days after the inoculation.
(§2) The measured parameters were compared to the growth of the active compound-free control variant (100%) and the fungus-free blank value to determine the relative growth in % of the pathogens in the respective active compounds.

Leptosphaeria nodorum = assay: Comparative Example 2: activity against wheat leaf spots caused by Leptosphaeria nodorum (microtiter plate); settings: relative to compound-free control (100%), 405 nm, 7 days after inoculation
Experimental: as §1, with “Leptosphaeria nodorum” for “Septoria tritici”, “DOE” for “DOB”
as §2

[1] = tested on: Colletotrichum orbiculare; assay: Comparative Example 3: activity against anthracnose caused by Colletotrichum orbiculare in the microtiterplate test; settings: at 2 ppm; relative to compound-free control (100%); 405 nm, 7 days after inoculation
Experimental: as §1, with “Colletotrichum orbiculare” for “Septoria tritici”, “bio malt” for “biomalt or yeast-bactopeptone-glycerine or DOB”
as §2

Fusarium culmorum = assay: Example 2: activity against Fusarium culmorum in the microtiterplate test; settings: 31 ppm active substance; relative to compound-free control (100%); 405 nm, 7 days after inoculation
Experimental: The active compounds were formulated separately as a stock solution having a concentration of 10000 ppm in dimethyl sulfoxide.
as §1, with “The” for “The active compounds were formulated separately as a stock solution having a concentration of 10000 ppm in dimethyl sulfoxide. The”, “Fusarium culmorum” for “Septoria tritici”
as §2

SMILES	growth of the pathogen (Botrytis cinerea) [%]	Growth (%) at 125 pm (Septoria tritici) [%]	Growth (%) at 125 pm (Leptosphaeria nodorum) [%]	Growth (%) at 2 pm [1] [%]	growth of the pathogen (Fusarium culmorum) [%]
Cc1cc(C2=NC(C)(C(C)(C)C)Oc3ccccc32)cnc1C(F)F (stereo not shown) [Ex-3]	0				
Cc1cc(C2=NC(C)(Cc3ccc(F)cc3)Oc3ccccc32)cnc1C(F)F (stereo not shown) [Ex-58]		73	8	55	
Cc1cc(C2=NC(C)(c3ccc(Cl)cc3)Oc3ccccc32)cnc1C(F)F (stereo not shown) [Ex-51]		46	15	22	
Cc1cc(C2=NC(C)(C)Oc3ccccc32)cnc1C [Ex-6]	0				1
Cc1cc(C2=NC(C)(C(C)(C)C)Oc3ccccc32)cnc1C (stereo not shown) [Ex-2]	0				
CC1(c2ccc(Cl)cc2)N=C(c2ccc(Cl)nc2)c2ccccc2O1 (stereo not shown) [reference compound]		69	47	88	
CC1(Cc2ccc(F)cc2)N=C(c2ccc(Cl)nc2)c2ccccc2O1 (stereo not shown) [reference compound]		93	43	96	
Cc1cc(C2=NC(C)(C(C)C)Oc3ccccc32)cnc1C (stereo not shown) [Ex-5]	0				
Cc1cc(C2=NC3(CCC(C)(C)C3)Oc3ccccc32)cnc1C (stereo not shown) [Ex-4]	0				1
